From patent publication US7297704B2, “Cycloalkyfused indole, benzothiophene, benzofuran and idene derivatives” (Wyeth, priority 2005, dated 2007) come the findings set out here.

Structures can show the parent of a compound that is named as a salt.

For data set [1], the target named is T1, Human 5-HT1A Receptor (Homo sapiens, UniProt P08908).
T1 construct: expressed in transfected cells; host or cells: CHO cells
T1 sequence (P08908 1-422): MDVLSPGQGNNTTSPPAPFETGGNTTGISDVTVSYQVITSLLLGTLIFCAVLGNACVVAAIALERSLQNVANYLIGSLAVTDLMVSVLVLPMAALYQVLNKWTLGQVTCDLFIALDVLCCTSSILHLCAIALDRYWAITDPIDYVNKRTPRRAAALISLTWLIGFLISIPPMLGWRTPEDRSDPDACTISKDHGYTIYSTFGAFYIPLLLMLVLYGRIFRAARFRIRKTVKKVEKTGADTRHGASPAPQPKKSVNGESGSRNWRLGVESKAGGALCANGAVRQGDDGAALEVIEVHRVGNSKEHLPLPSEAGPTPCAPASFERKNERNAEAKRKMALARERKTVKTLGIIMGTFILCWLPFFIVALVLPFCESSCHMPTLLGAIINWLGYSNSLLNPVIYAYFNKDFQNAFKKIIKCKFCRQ
The data set is described as follows: 8-OH-DPAT binding, human 5-HT1A receptor cell line. Conditions: stably transfected CHO cells, 8-OH-DPAT ligand 1.5 nM; read-out: h5-HT1A Affinity, Ki. How it is done:
Stably transfected CHO cells were grown in DMEM containing 10% heat inactivated FBS and non-essential amino acids. Cells were scraped off the plate, transferred to centrifuge tubes, and washed twice by centrifugation (2000 rpm for 10 min., 4° C.) in buffer (50 mM Tris, pH 7.5). The resulting pellets were aliquoted and placed at −80° C. On day of assay, the cells were thawed on ice, and resuspended in buffer. The binding assay was performed in a 96 well microtiter plate in a total volume of […]. Non-specific binding was determined in the presence of […] 5HT; final ligand concentration was 1.5 nM. Following a 30 min. incubation at room temperature, the reaction was terminated by the addition of ice cold buffer and rapid filtration through a GF/B filter presoaked for 30 min. in 0.5% PEI. Compounds were initially tested in a single point assay to determine percent inhibition at […]. Subsequently, Ki values were determined for compounds defined to be active. Percent inhibition Ki was determined by RFComp (Lundon Software), with Serotonin 8-OH-DPAT as the reference compounds.

The target in a further data set is T2, serotonin transporter (Rattus norvegicus, UniProt P31652).
T2 construct: frontal cortical membranes prepared from male S.D. rats; from tissue; host or cells: rat frontal cortex membranes (male Sprague-Dawley)
T2 sequence (P31652 whole entry): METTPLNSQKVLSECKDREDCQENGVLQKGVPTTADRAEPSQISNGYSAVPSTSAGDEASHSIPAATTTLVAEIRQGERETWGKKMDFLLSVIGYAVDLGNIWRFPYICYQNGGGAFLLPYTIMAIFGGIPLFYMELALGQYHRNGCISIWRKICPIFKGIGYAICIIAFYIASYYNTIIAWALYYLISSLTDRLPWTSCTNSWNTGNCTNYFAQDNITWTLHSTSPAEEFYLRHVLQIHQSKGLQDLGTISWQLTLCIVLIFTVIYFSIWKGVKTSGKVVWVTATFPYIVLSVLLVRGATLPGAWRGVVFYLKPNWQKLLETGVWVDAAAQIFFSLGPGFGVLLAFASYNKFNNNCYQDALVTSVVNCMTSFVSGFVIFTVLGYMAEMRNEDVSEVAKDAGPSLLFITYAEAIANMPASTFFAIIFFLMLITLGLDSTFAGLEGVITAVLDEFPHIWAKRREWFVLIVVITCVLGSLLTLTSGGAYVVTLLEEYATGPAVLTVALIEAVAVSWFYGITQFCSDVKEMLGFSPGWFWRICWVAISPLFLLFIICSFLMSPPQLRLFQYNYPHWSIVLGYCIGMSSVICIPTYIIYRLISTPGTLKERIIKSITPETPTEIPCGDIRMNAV
The data set is described as follows: 3H-paroxetine binding to the serotonin transporter, rat frontal cortical membranes. Conditions: values printed in parentheses, 3H-paroxetine 0.1 nM, read-out: rb-5-HH-T, (IC50). On the procedure:
A protocol similar to that used by Cheetham et al. (Neuropharmacol. 32:737, 1993) was used to determine the affinity of compounds for the serotonin transporter. Briefly, frontal cortical membranes prepared from male S.D. rats were incubated with ^3H-paroxetine (0.1 nM) for 60 min at 25° C. All tubes also contained either vehicle, test compound (one to eight concentrations), or a saturating concentration of fluoxetine (10 μM) to define […]. All reactions are terminated by the addition of ice cold Tris buffer followed by rapid filtration using a Tom Tech filtration device to separate bound from free ^3H-paroxetine. Bound radioactivity was quantitated using a Wallac 1205 Beta Plate® counter. Nonlinear regression analysis was used to determine IC50 values which were converted to Ki values using the method of Cheng and Prusoff (Biochem. Pharmacol. 22: 3099, 1973); […].

Data set [2] deals with T1, Human 5-HT1A Receptor. The data set is described as follows: cAMP RIA in human 5-HT1A receptor cell line. Conditions: superscript b; reversal of agonist activity, CHO cells; read-out: c-AMP, (IC50)^b. In kind it is cell-based. How it is done: Stably transfected CHO cells were grown in DMEM containing 10% heat inactivated FBS and non-essential amino acids. The cells were plated at a density of 10^6 cells per well in a 96 well plate and incubated for 2 days in a CO2 incubator. On the second day, the media was replaced with 0.1 ml Krebs and incubated 15 minutes at 37° C. The media was then replaced with Krebs buffer containing 500 uM IBMX and incubated 5 minutes at 37° C. Wells were treated with forskolin (1 uM final conc) followed immediately by test compound (0.1 and 1 uM for initial screen) and incubated for an additional 10 min at 37° C. Reaction was terminated by removal of the media and addition of 0.5 ml ice cold assay buffer (supplied in RIA kit). Plates are stored at −20° C. prior to assessment of cAMP formation by RIA. Compounds shown to have no agonist activities were further analyzed for ability to reverse agonist activity. In separate experiments, 6 concentrations of antagonist were preincubated for 20 min prior to the addition of agonist and forskolin. Cells were harvested as described. The cAMP kit is supplied by Amersham and the RIA is performed as per kit instructions. In the initial screen, percent inhibition of forskolin stimulated cAMP was measured. In the secondary screen, IC50 of reversal of agonist activity was measured. Calculations of IC50 were performed by GraphPad Prism. Serotonin, BMY 7378, Buspirone, and 8-OH-DPAT were used as reference compounds.

The molecule `Cc1ccc2c3c(ccc2n1)OC[C@H](CN(CC1CCc2c(c4cc(F)ccc4n2C)C1)C1CCCCC1)O3.Cl.O` (stereo partly drawn) (hydrate or solvate) [Example 67, N-[(6-Fluoro-9-methyl-2,3,4,9-tetrahydro-1H-carbazol-3-yl)methyl]-N-{[(2S)-8-methyl-2,3-dihydro[1,4]dioxino[2,3-f]quinolin-2-yl]methyl}cyclohexanamine monohydrochloride monohydrate] gave a melting point of 204 to 225 °C.
Still for that read-out and setting: then `Cc1ccc2c3c(ccc2n1)OC[C@H](CN(C)C[C@H]1CCc2c(c4cc(F)ccc4n2C)C1)O3.Cl.O` (hydrate or solvate) [Example 68, {[(3S)-6-Fluoro-9-methyl-2,3,4,9-tetrahydro-1H-carbazol-3-yl]methyl}methyl{[(2S)-8-methyl-2,3-dihydro[1,4]dioxino[2,3-f]quinolin-2-yl]methyl}amine monohydrochloride monohydrate], with 248 to 258 °C; and `Cc1ccc2c3c(ccc2n1)OC[C@H](CN(C)C[C@@H]1CCc2c(c4cc(F)ccc4n2C)C1)O3.Cl.O` (hydrate or solvate) [Example 69, {[(3R)-6-Fluoro-9-methyl-2,3,4,9-tetrahydro-1H-carbazol-3-yl]methyl}methyl{[(2S)-8-methyl-2,3-dihydro[1,4]dioxino[2,3-f]quinolin-2-yl]methyl}amine monohydrochloride monohydrate], with 244 to 256 °C.
On the same count and under the same terms, to `Cc1ccc2c3c(ccc2n1)OC[C@H](CNC1CCc2c([nH]c4ccc(F)cc24)C1)O3` (mixture of isomers) (as salt: hydrochloride) [Example 46, 6-Fluoro-N-{[(2S)-8-methyl-2,3-dihydro[1,4]dioxino[2,3-f]quinolin-2-yl]methyl}-2,3,4,9-tetrahydro-1H-carbazol-2-amine] belongs 226 to 228 °C (dec.).
Molecule `Cc1ccc2c3c(ccc2n1)OC[C@H](CNCC1CCc2[nH]c4ccc(F)cc4c2C1)O3` (mixture of isomers) [Example 2, N-[(6-fluoro-2,3,4,9-tetrahydro-1H-carbazol-3-yl)methyl]-N-{[(2S)-8-methyl-2,3-dihydro[1,4]dioxino[2,3-f]quinolin-2-yl]methyl}amine] registered a melting point of 89 to 97 °C. Further, the inhibitory constant (Ki) at Human 5-HT1A Receptor [1] turned out to be 0.00136 µM. Further, the IC50 on serotonin transporter worked out at 0.00526 µM. For the same molecule, the concentration for half-maximal inhibition (IC50) on Human 5-HT1A Receptor [2] was found to be 0.0072 µM.
Consider `Cc1ccc2c3c(ccc2n1)OC[C@H](CNCC1CCc2c(c4cc(F)ccc4n2C)C1)O3` (mixture of isomers) [Example 6, N-[(6-fluoro-9-methyl-2,3,4,9-tetrahydro-1H-carbazol-3-yl)methyl]-N-{[(2S)-8-methyl-2,3-dihydro[1,4]dioxino[2,3-f]quinolin-2-yl]methyl}amine], for which the melting point lay within 57 to 62 °C. Moreover, the inhibition constant (Ki) at Human 5-HT1A Receptor [1] came out at 0.00365 µM. Also, on serotonin transporter, the IC50 stood at 0.00901 µM. Also, the concentration for half-maximal inhibition (IC50) on Human 5-HT1A Receptor [2] is 0.532 µM.
Turning to `Cc1ccc2c3c(ccc2n1)OC[C@H](CNC[C@H]1CCc2[nH]c4ccccc4c2C1)O3` (single isomer, unassigned) (as salt: hydrochloride) [Example 100a], the melting point was 202 to 205 °C (dec.).
Still for that read-out and setting: then `Cc1ccc2c3c(ccc2n1)OC[C@H](CNC[C@@H]1CCc2[nH]c4ccccc4c2C1)O3` (single isomer, unassigned) (as salt: hydrochloride) [Example 100b], with 218 to 221 °C (dec.).
Consider `Cc1ccc2c3c(ccc2n1)OC[C@H](CNCC1CCc2c([nH]c4ccc(F)cc24)C1)O3` (stereo partly drawn) [Example 1, N-[(6-fluoro-2,3,4,9-tetrahydro-1H-carbazol-2-yl)methyl]-N-{[(2S)-8-methyl-2,3-dihydro[1,4]dioxino[2,3-f]quinolin-2-yl]methyl}amine], for which the melting point lay within 92 to 96 °C. On Human 5-HT1A Receptor [1], the inhibition constant (Ki) stood at 0.00223 µM. Further, at serotonin transporter, the IC50 stood at 0.0494 µM. Moreover, the IC50 on Human 5-HT1A Receptor [2] turned out to be 0.0152 µM.
Taken in the same sequence, the figures for `Cc1ccc2c3c(ccc2n1)OC[C@H](CNC[C@@H]1CCc2[nH]c4c(F)cc(F)cc4c2C1)O3.Cl.Cl` [Example 9, N-{[(3R)-6,8-difluoro-2,3,4,9-tetrahydro-1H-carbazol-3-yl]methyl}-N-{[(2S)-8-methyl-2,3-dihydro[1,4]dioxino[2,3-f]quinolin-2-yl]methyl}amine dihydrochloride] were 260 to 272 °C, 0.0037 µM, 0.0576 µM and 0.105 µM.
Taken in the same sequence, the figures for `Cc1ccc2c3c(ccc2n1)OC[C@H](CNC[C@H]1CCc2[nH]c4c(F)cc(F)cc4c2C1)O3.Cl.Cl` [Example 10, N-{[(3S)-6,8-difluoro-2,3,4,9-tetrahydro-1H-carbazol-3-yl]methyl}-N-{[(2S)-8-methyl-2,3-dihydro[1,4]dioxino[2,3-f]quinolin-2-yl]methyl}amine dihydrochloride] were 267 to 275 °C, 0.00495 µM, 0.0113 µM and 0.249 µM.
Taken in the same sequence, the figures for `Cc1ccc2c3c(ccc2n1)OC[C@H](CNCC1CCc2[nH]c4cccc(F)c4c2C1)O3.Cl.Cl` (stereo partly drawn) [Example 11, [(5-fluoro-2,3,4,9-tetrahydro-1H-carbazol-3-yl)methyl]{[(2S)-8-methyl-2,3-dihydro[1,4]dioxino[2,3-f]quinolin-2-yl]methyl}amine dihydrochloride] were 220 to 230 °C, 0.0167 µM, 0.124 µM and 0.0492 µM.
On to `Cc1ccc2c3c(ccc2n1)OC[C@H](CNCC1CCc2c(c4c(F)cccc4n2C)C1)O3` (stereo partly drawn) [Example 12, N-[(5-fluoro-9-methyl-2,3,4,9-tetrahydro-1H-carbazol-3-yl)methyl]-N-{[(2S)-8-methyl-2,3-dihydro[1,4]dioxino[2,3-f]quinolin-2-yl]methyl}amine], for which the melting point lay within 84 to 90 °C. Moreover, on Human 5-HT1A Receptor [1], the inhibition constant (Ki) amounted to 0.00054 µM. Also, the IC50 at serotonin transporter came out at 0.18 µM. Besides, at Human 5-HT1A Receptor [2], the half-maximal inhibitory concentration (IC50) turned out to be 0.0267 µM.
Molecule `Cc1ccc2c3c(ccc2n1)OC[C@H](CNCC1CCc2[nH]c4cc(F)ccc4c2C1)O3` (stereo partly drawn) [Example 13, N-[(7-fluoro-2,3,4,9-tetrahydro-1H-carbazol-3-yl)methyl]-N-{[(2S)-8-methyl-2,3-dihydro[1,4]dioxino[2,3-f]quinolin-2-yl]methyl}amine] had a melting point of 89 to 97 °C. The inhibition constant (Ki) on Human 5-HT1A Receptor [1] was 0.0018 µM. Moreover, the IC50 on serotonin transporter was found to be 0.12 µM. The concentration for half-maximal inhibition (IC50) at Human 5-HT1A Receptor [2] came to 0.0221 µM.
For `Cc1ccc2c3c(ccc2n1)OCC(CNCC1CCc2[nH]c4ccc(Cl)cc4c2C1)O3` (stereo not drawn) [Example 85, (6-Chloro-2,3,4,9-tetrahydro-1H-carbazol-3-ylmethyl)-(8-methyl-2,3-dihydro-[1,4]dioxino[2,3-f]quinolin-2-ylmethyl)-amine], the melting point was in the range of 235 to 237 °C.

As a reminder, the melting point is the temperature of the solid-liquid transition. The Ki is the dissociation constant of the complex between target and ligand, obtained from inhibition or displacement. Broadly, the IC50 is the midpoint of a concentration-inhibition curve.
